Experimental data as given in patent publication US8975259B2, “Compositions and methods for inhibiting G protein signaling” (University of Rochester, priority 2007, dated 2015).

Legend:
[1] = tested on: PLCβ2; details: Scott, et al. (2001); read-out: IC50 for inhibition of PLC β2 activation by Gβ1γ2; cited from earlier work
[2] = target: T1, Fαi1GDPβ1γ2 heterotrimer (UniProt P54311+P63212); test: Dissociation of Fαi1 from preformed Fαi1β1γ2 heterotrimer (flow cytometry); format: binding; details: result in words
T1 construct: made in house; host or cells: b-βγ: Sf9 insect cells
Description: Assays were used to determine peptide effects on Gα-Gβγ interactions included competition and dissociation assays (Ghosh, et al. (2003) supra). […] To measure dissociation of Fan from b-Gβaγ2, 100 pM of Fa^ was incubated with 50 pM immobilized b-Gβ1γ2 at room temperature for 15-20 minutes. The fluorescence of bound Fαii subunit was measured, followed by the addition of a 200-fold excess of unlabeled Gcx±x or peptides and the amount of Fan remaining bound to the beads was measured at the indicated times.
The ability of peptides to dissociate a preformed hetero-trimer was assessed by comparing the rates of Fαi1 dissociation from Fαi1β1γ2 with excess unlabeled αi1 competitor (intrinsic dissocia-tion rate) and in the presence of a saturating concentration of peptide.

[3] = tested on: human δ opioid receptor (hDOR-CHO cells); test: Total inositol phosphate assay in hDOR-CHO cells; format: cell-based; details: DPDPE, Deltorphin II, M119 10 μM; naltrindole 100 μM; result in words
Description: (§1) Chinese hamster ovary (CHO) cells stably expressing either the human κ (hKOR-CHO), δ (hDOR-CHO)(L. Toll, Stanford Research Institute, Palo Alto, Calif.) or μ (hMOR-CHO)(G. Uhl, National Institute on Drug Abuse, Baltimore, Md.) opioid receptor were used in the experiments. Cells in 6-well plates were labeled by adding 4 μCi of [^3H]inositol for 24 hr in inositol-free F-10 media, without serum. After labeling, LiCl was added directly to the labeling media at a final concentration of 10 mM. Ligands or peptides were added at the same time. The final volume of each well was 1 mL. The plates were put back in to the incubator at 37° C. for 30 min after which time the medium was aspirated and the plates were washed twice with 1× PBS. Ice-cold 50 mM formic acid, 1 mL, was added to the plates which were placed in the cold room at 4° C. for 30 min. After the incubation, the contents of the plates were applied to Dowex AG1-X8 columns and allowed to flow all the way through the column. The columns were washed, twice each, with 50 and 100 mM formic acid, for a total of four washes, followed by elution of the IP-containing fraction with 3 mL of 1.2 M ammonium formate/0.1 M formic acid. The eluted fraction was mixed with Scintisafe scintillation fluid, for high salt, and counted. The data are represented as the fold increase over control in total inositol phospates. All experiments were repeated three times and performed in duplicate. Control cells for each experiment were labeled with [^3H]inositol and LiCl, in the same manner as the treatment groups.

[4] = tested on: opioid-induced antinociception in mice; test: 55° C. warm-water tail-flick antinociception; format: in vivo, mouse; details: i.c.v., 20 min, 55° C. tail-flick; 95% CL in parentheses
[5] = tested on: human μ opioid receptor (hMOR-CHO cells); test: Total inositol phosphate assay in hMOR-CHO cells; format: cell-based
Description: as §1

T1 sequence (P54311 whole entry): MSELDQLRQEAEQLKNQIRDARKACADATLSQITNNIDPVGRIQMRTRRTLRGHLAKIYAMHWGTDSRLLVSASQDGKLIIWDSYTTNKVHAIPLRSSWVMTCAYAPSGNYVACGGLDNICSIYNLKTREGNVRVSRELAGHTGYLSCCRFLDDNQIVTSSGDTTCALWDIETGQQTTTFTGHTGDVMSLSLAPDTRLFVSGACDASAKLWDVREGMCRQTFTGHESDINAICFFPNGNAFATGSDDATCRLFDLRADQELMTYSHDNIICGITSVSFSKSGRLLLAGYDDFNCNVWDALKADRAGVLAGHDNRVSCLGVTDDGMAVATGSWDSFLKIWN
T1 sequence (P63212 2-68 limits assumed): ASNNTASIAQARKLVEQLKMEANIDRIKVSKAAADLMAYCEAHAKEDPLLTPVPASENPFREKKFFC

Molecule | IC50 [1] [µM] | promotion/acceleration of heterotrimer dissociation [2] | effect on IP generation over control treated cells [3] | ED50 of opioid agonist alone [4] [nmol] | effect of compound by itself on IP production [5]
CC[C@H](C)[C@H](NC(=O)[C@H](CC(N)=O)NC(=O)[C@H](CC(C)C)NC(=O)[C@H](C)NC(=O)[C@H](CCCCN)NC(=O)[C@H](CCCNC(=N)N)NC(=O)[C@@H](NC(=O)[C@@H](N)CO)[C@@H](C)CC)C(=O)N[C@@H](CC(C)C)C(=O)NCC(=O)N[C@@H](Cc1ccc(O)cc1)C(=O)N1CCC[C@H]1C(=O)N[C@@H](CC(=O)O)C(=O)N[C@@H](Cc1ccc(O)cc1)C(=O)N[C@@H](CC(=O)O)C(=O)O [SIRK] | 5 | promotes dissociation | – | – | –
Oc1ccc2c3c1O[C@H]1c4[nH]c5ccccc5c4C[C@@]4(O)[C@@H](C2)N(CC2CC2)CC[C@]314 [naltrindole] | – | – | no significant effect | – | –
[D-Pen^2,D-Pen^5]enkephalin [DPDPE] | – | – | neither DPDPE (10 μM) (FIG. 15C) nor Deltorphin II (10 μM) (FIG. 15D) significantly increased IP generation | 6.5 | no effect
